Data published in the supplement of paper PMC10307832.

Tests used:
Assay in all cases: relative viability (nuclei count vs DMSO), 5 days (fraction); higher = more cells survive
[1] = compound: CN(C)CC1=CC(=CC=C1)N=C(C2=CC=CC=C2)C3=C(NC4=C3C=CC(=C4)C(=O)N(C)C)O + COc1cc2c(Oc3ccc(NC(=O)C4(C(=O)Nc5ccc(F)cc5)CC4)cc3F)ccnc2cc1OCCCN1CCOCC1 [Foretinib] (partner 0.25 µM)
Outline: (§1)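 For relative viability, nuclei counts in treated wells were divided by those in vehicle wells. Lung cancer cell lines had been pin-tool dosed in 1536-well plates the day after seeding and cultured for 5 days, then fixed and stained in one step (final 0.05% Triton X-100, 1% formaldehyde, 1 ug/ml Hoechst) and imaged at 4×. Doses were one drug alone or a fixed anchor-drug dose plus five library-drug doses (not always all listed) in √10 steps, and values are duplicate-plate medians.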

[2] = compound: CN(C)CC1=CC(=CC=C1)N=C(C2=CC=CC=C2)C3=C(NC4=C3C=CC(=C4)C(=O)N(C)C)O + CC1(C)CCC(c2ccc(Cl)cc2)=C(CN2CCN(c3ccc(C(=O)NS(=O)(=O)c4ccc(N[C@H](CCN5CCOCC5)CSc5ccccc5)c(S(=O)(=O)C(F)(F)F)c4)cc3)CC2)C1 [Navitoclax] (partner 0.5 µM)
Outline: as §1

[3] = compound: CN(C)CC1=CC(=CC=C1)N=C(C2=CC=CC=C2)C3=C(NC4=C3C=CC(=C4)C(=O)N(C)C)O + C[C@]1(O)C[C@@H](c2nc(-c3ccc4ccc(-c5ccccc5)nc4c3)c3c(N)nccn32)C1 [Linsitinib] (partner 1 µM)
Outline: as §1

[4] = compound: CN(C)CC1=CC(=CC=C1)N=C(C2=CC=CC=C2)C3=C(NC4=C3C=CC(=C4)C(=O)N(C)C)O + CCNC(=O)c1noc(-c2cc(C(C)C)c(O)cc2O)c1-c1ccc(CN2CCOCC2)cc1 [Luminespib] (partner 0.01 µM)
Outline: as §1

Cell Line | relative viability ([1]; first compound 0.08 µM) | relative viability ([1]; first compound 0.253 µM) | relative viability ([1]; first compound 0.8 µM) | relative viability ([1]; first compound 2.53 µM) | relative viability ([1]; first compound 8 µM) | relative viability ([2]; first compound 0.08 µM) | relative viability ([2]; first compound 0.253 µM) | relative viability ([2]; first compound 0.8 µM) | relative viability ([2]; first compound 2.53 µM) | relative viability ([2]; first compound 8 µM) | relative viability ([3]; first compound 0.08 µM) | relative viability ([3]; first compound 0.253 µM) | relative viability ([3]; first compound 0.8 µM) | relative viability ([3]; first compound 2.53 µM) | relative viability ([3]; first compound 8 µM) | relative viability ([4]; first compound 0.08 µM) | relative viability ([4]; first compound 0.253 µM) | relative viability ([4]; first compound 0.8 µM) | relative viability ([4]; first compound 2.53 µM) | relative viability ([4]; first compound 8 µM)
HCC-15 | 1.01 | 1.02 | 1.1 | 0.99 | 1 | 0.708 | 0.705 | 0.726 | 0.731 | 0.667 | 0.869 | 0.849 | 0.976 | 0.974 | 0.805 | 0.304 | 0.205 | 0.181 | 0.278 | 0.279
HCC-44 | – | – | – | – | – | 0.948 | 0.95 | 0.942 | 0.995 | 0.994 | 0.67 | 0.683 | 0.641 | 0.613 | 0.664 | 1.15 | 0.761 | 1.03 | 0.917 | 0.991
HCC-78 | 0.564 | 0.582 | 0.472 | 0.61 | 0.547 | 0.894 | 0.734 | 0.807 | 0.75 | 0.769 | 0.62 | 0.452 | 0.475 | 0.535 | 0.511 | – | – | – | – | –
HCC-366 | 0.903 | 0.889 | 0.888 | 0.83 | 0.85 | 0.969 | 1.03 | 1.07 | 1.07 | 0.901 | 0.737 | 0.602 | 0.657 | 0.473 | 0.354 | – | – | – | – | –
HCC-827 | 1.05 | 1.08 | 1.01 | 1.02 | 0.876 | 1.04 | 1.02 | 1.06 | 1 | 0.941 | 0.984 | 0.944 | 1.03 | 0.925 | 0.937 | 0.442 | 0.651 | 0.457 | 0.723 | 0.489
IA-LM | 1.16 | 1.19 | 1.3 | 1.18 | 1.32 | – | 0.848 | 0.766 | 0.915 | 1.02 | 0.666 | 0.645 | 0.773 | 0.767 | 0.544 | – | – | – | – | –
LCLC-103H | 0.746 | 0.826 | 0.825 | 0.841 | 0.508 | – | – | – | – | – | 1.15 | 1.11 | 0.941 | 0.904 | 0.908 | 0.948 | 0.959 | 1.07 | 0.926 | 0.863
NCI-H358 | 0.696 | 0.808 | 0.515 | 0.585 | 0.506 | – | – | – | – | – | 0.779 | 0.715 | 0.673 | 0.621 | 0.464 | 0.304 | 0.277 | 0.331 | 0.414 | 0.276
NCI-H522 | – | – | – | – | – | – | – | – | – | – | – | – | – | – | – | 1.16 | 1.13 | 1.12 | 1.22 | 0.819
